The values that follow come from patent publication US9260484B2, “Small molecule composite surfaces as inhibitors of protein-protein interactions” (Ohio State Innovation Foundation, priority 2011, dated 2016).

Entries after “also recorded” stand apart in the source; their conditions may differ. Read-outs that look alike come from different tables or passages of the source. Numbered stars: 1 amine (or outer) side, 2 acyl side, 3 side chain; on linkers, the order of the positions; unused ones are H or OH. Bridge positions count the residues as written; N and C are the ends. Square brackets hold non-standard residues; d marks the D form. Peptide text beside a SMILES is read from it. dβ3h(hPhe) = O=C(C[C@@H](CCc1ccccc1)N[*:1])[*:2]; Phe(4-F) = N[C@@H](Cc1ccc(F)cc1)C(=O)O; d2Nal = N[C@H](Cc1ccc2ccccc2c1)C(=O)O; X1 = CC(C)(CO[*:2])C(=O)C(=O)[*:1]; dNle = CCCC[C@@H](N)C(=O)O; Pip = O=C(O)[C@@H]1CCCCN1

Test [1] concerns the target K-Ras and RalGDS (Homo sapiens, UniProt P01116, G12V). Kind of test: bead assay: K-Ras binding to immobilized Myc-tagged effector protein. The note with it: 10 μM compound; Texas red-labeled GST-K-Ras 100 nM. An excerpt: The Myc-tagged effector proteins were immobilized on protein A-beads with an anti-Myc antibody.
Test [2] deals with K-Ras and PI3 kinase (Homo sapiens, UniProt P01116, G12V). The test is described as above. The note with it: 10 μM compound; Texas red-labeled GST-K-Ras 100 nM. As to the method:
(§1) Compound B12 was also assayed for its ability to inhibit the PPI between K-Ras and its effector proteins including PI3 kinase, Tiam, and RalGDS. The Myc-tagged effector proteins were immobilized on protein A-beads with an anti-Myc antibody.

For test [3], the target named is K-Ras and Tiam (Homo sapiens, UniProt P01116, G12V). The description is as above. As to conditions: 10 μM compound; Texas red-labeled GST-K-Ras 100 nM. As to the method:
as §1

Test [4] deals with A549 lung cancer cell line. Kind of test: MTT viability assay. It counts as cell-based, human. As to the method:
(§2) FIG. 14. MTT viability assay with H358 and A549 lung cancer cell lines (both have mutant K-Ras). The assay was performed to assess the effect of compound B12 on proliferation and survival of these cell lines.
(§3) Finally, preliminary cellular assays were performed with compound […]. Singh et al. used RNA interference to down regulate mutant K-RAS in a large number of human cancer cell lines.^102 They reported that the H358 cell line is very sensitive to losing mutant K-Ras whereas the A549 cell line is hardly affected. Both are lung cancer cell lines.
On the technique in general: Formazan colour is commonly taken as a measure of viable cells.

The test system of test [5] is H358 lung cancer cell line. Put plainly: MTT viability assay. It counts as cell-based, human. On the procedure:
as §2, §3

The target of test [6] is T1, FKBP (Homo sapiens, UniProt P62942).
T1 construct: 200 nM recombinant FKBP
T1 sequence (P62942 whole entry): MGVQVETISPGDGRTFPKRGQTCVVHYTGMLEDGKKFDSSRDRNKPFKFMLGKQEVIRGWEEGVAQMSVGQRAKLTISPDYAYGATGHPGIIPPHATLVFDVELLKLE
Kind of test: fluorescence polarization (FA) competition assay for binding to FKBP. As to the method: To facilitate solid-phase synthesis, an invariant glutamine was added to the C-terminal side of the R^1 residue, for the purpose of backbone peptide cyclization and providing an anchor for attachment to the solid support. For this set of compounds, the dipeptide Ala-Ala was used as the effector domain. The rapalogs were tested for binding to FKBP by a fluorescence polarization competition assay^22,23. SLF^24, was labeled with the fluorescent dye fluorescein^23. Binding of the labeled ligand to FKBP increases its fluorescence anisotropy (FA) values. Addition of an unlabeled ligand to the reaction inhibits the binding of SLF to FKBP and therefore decreases the FA values. […] Subsequently, the IC50 values were converted into KI values based on the Cheng-Prusoff equation.
A previously reported synthetic ligand of FKBP^46 (SLF in FIG. 2), was labeled with the fluorescent dye fluorescein^20. Binding of the labeled ligand to FKBP increases its fluorescence anisotropy (FA) value.
The fluorescence polarization based competition assay was performed in a 384-well plate. […] After the addition of the rapalogs as the last component, the binding reactions were incubated for 1 h at room temperature to reach binding equilibrium. Anisotropy values were measured on a FlexStation 3 plate reader (Molecular Devices, Sunnyvale, Calif.).

The target in test [7] is FKBP (no GST) (Homo sapiens, UniProt P62942). Kind of test: fluorescence polarization binding of FITC-labeled compound to FKBP.
FKBP (no GST), sequence (P62942 whole entry): as above
Where [8] appears, read: Table 2, converted from IC50 by Cheng-Prusoff equation, read-out: Ki.

K-Ras and RalGDS, sequence (P01116 1-188 isoform P01116-2 G12V): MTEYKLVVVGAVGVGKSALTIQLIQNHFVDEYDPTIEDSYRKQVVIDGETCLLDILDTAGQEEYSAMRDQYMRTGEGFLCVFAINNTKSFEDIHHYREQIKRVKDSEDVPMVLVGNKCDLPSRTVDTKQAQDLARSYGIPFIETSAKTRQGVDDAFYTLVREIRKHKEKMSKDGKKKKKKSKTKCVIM
K-Ras and Tiam, sequence (P01116 1-188 isoform P01116-2 G12V): as above
K-Ras and PI3 kinase, sequence (P01116 1-188 isoform P01116-2 G12V): as above

In the case of `CCCC[C@H]1NC(=O)[C@H](Cc2ccc(F)cc2)NC(=O)[C@H](CCCNC(=N)N)NC(=O)[C@@H](Cc2ccc3ccccc3c2)NC(=O)[C@H](CCCNC(=N)N)NC(=O)[C@H](CCCNC(=N)N)NC(=O)[C@H](CCC(N)=O)NC(=O)C[C@@H](CCc2ccccc2)NC(=O)[C@@H]2CCCCN2C(=O)C(=O)C(C)(C)COC1=O` [Compound C12] ([Pip][dβ3h(hPhe)]QRR[d2Nal]R[Phe(4-F)][dNle]; linker N-C via X1), the “binding of GST-KRas to immobilized RalGDS” value in test [1] was “completely blocked; also recorded: Disruption”. Further, the “binding of GST-KRas to immobilized PI3 kinase” value in test [2] was “completely blocked”. In test [3], the “binding of GST-KRas to immobilized Tiam” value was “completely blocked”. The concentration for half-maximal inhibition (IC50) is around 50 µM in test [4] (A549 cells, proliferation and survival, preliminary); around 10 µM in test [5] (H358 cells, proliferation and survival, preliminary). In addition, the “sensitivity of cells to compound” value in test [4] (FIG. 14) was “significantly less sensitive”; in test [5] (FIG. 14), “sensitive”.
`C[C@@H]1NC(=O)[C@H](C)NC(=O)[C@H](CCC(N)=O)NC(=O)C[C@@H](CCc2ccccc2)NC(=O)[C@@H]2CCCCN2C(=O)C(=O)C(C)(C)COC(=O)[C@@H](C)NC(=O)[C@H](C)NC1=O` [Compound 2p] ([Pip][dβ3h(hPhe)]QAAA[dA]; linker N-C via X1): the inhibition constant Ki in test [6] (setting [8]) is 180 ± 60 nM.
Consider `C[C@@H]1NC(=O)[C@H](C)NC(=O)[C@H](CCC(N)=O)NC(=O)[C@H](C)NC(=O)[C@@H]2CCCCN2C(=O)C(=O)C(C)(C)COC(=O)[C@@H](C)NC1=O` [Compound 2a] (HELM PEPTIDE1{[O=C([C@@H]1CCCCN1[*:1])[*:2]].A.Q.A.A.[dA]}|CHEM1{[CC(C)(CO[*:2])C(=O)C(=O)[*:1]]}$PEPTIDE1,CHEM1,1:R1-1:R1|PEPTIDE1,CHEM1,6:R2-1:R2$$$V2.0), for which, in test [6] (setting [8]), the Ki amounted to 7000 ± 1000 nM.
As to `C[C@@H]1NC(=O)[C@H](CCC(N)=O)NC(=O)C[C@@H](CCc2ccccc2)NC(=O)[C@@H]2CCCCN2C(=O)C(=O)C(C)(C)COC(=O)[C@H](Cc2ccccc2)NC(=O)[C@H](C)NC(=O)[C@@H](C)NC1=O` [Compound 2s] ([Pip][dβ3h(hPhe)]QA[dA]AF; linker N-C via X1), the affinity in test [6], expressed as Ki, was 900 ± 200 nM.
`CCCC[C@H]1NC(=O)[C@H](Cc2ccc(F)cc2)NC(=O)[C@H](CCCN=C(N)N)NC(=O)[C@@H](Cc2ccc3ccccc3c2)NC(=O)[C@H](CCCN=C(N)N)NC(=O)[C@H](CCCN=C(N)N)NC(=O)[C@H](CCC(N)=O)NC(=O)C[C@@H](CCc2ccccc2)NC(=O)[C@@H]2CCCCN2C(=O)C(=O)C(C)(C)COC1=O` [Compound C12] ([Pip][dβ3h(hPhe)]QRR[d2Nal]R[Phe(4-F)][dNle]; linker N-C via X1) registered a Kd in test [7] of 500 nM.
Turning to `C[C@@H]1NC(=O)[C@H](C)NC(=O)[C@H](CCC(N)=O)NC(=O)C[C@@H](CCc2ccccc2)NC(=O)[C@@H]2CCCCN2C(=O)C(=O)C(C)(C)COC(=O)[C@H]([C@@H](C)O)NC(=O)[C@H](C)NC1=O` [Compound 2r] ([Pip][dβ3h(hPhe)]QAAAT; linker N-C via X1), the Ki in test [6] (setting [8]) worked out at 300 ± 100 nM.
`C[C@@H]1NC(=O)[C@H](C)NC(=O)[C@H](CCC(N)=O)NC(=O)C[C@H](CCc2ccccc2)NC(=O)[C@@H]2CCCCN2C(=O)C(=O)C(C)(C)COC(=O)[C@H](Cc2ccccc2)NC1=O` [Compound 2j]: in test [6], the Ki was 800 ± 100 nM.

The term IC50 denotes the concentration that inhibits the measured activity by half. Low values mean greater potency, high ones weaker potency. Usually Ki stands for a measure of affinity in units of concentration, obtained from inhibition or displacement. One may read the Kd as the free concentration of one partner at which half of the binding sites on the other are occupied at equilibrium, for simple one-to-one binding.
